*1 amine or outer side, *2 acyl side, *3 side chain or, on linkers, in order; H or OH if unused. Where a SMILES comes first, the peptide text is derived from it. Bridges are numbered along the chain shown (N, C = ends). Side-chain parts run from the residue outwards. [ ]: non-standard residue; d: D form. The star is where a group is joined. ξ: configuration not given here. Me3N+CH2CH2(OCH2CH2)4CO = C[N+](C)(C)CCOCCOCCOCCOCCC(=O)*; Me3N+(CH2)2O(CH2)2O(CH2)2CO = C[N+](C)(C)CCOCCOCCC(=O)*; PEG12 = NCCOCCOCCOCCOCCOCCOCCOCCOCCOCCOCCOCCOCCC(=O)O; CH2CH2OCH2CH2OCH2CH2NMe3+ = C[N+](C)(C)CCOCCOCC*; Trp(7-Me) = Cc1cccc2c(C[C@H](N)C(=O)O)c[nH]c12; C18 diacid = O=C(O)CCCCCCCCCCCCCCCCC(=O)*; X6 = CN(CC[C@H](N[*:1])C(=O)[*:2])[*:3]; γGlu = O=C(O)[C@H](CCC(=O)[*:2])N[*:1]; 2Nal = N[C@@H](Cc1ccc2ccccc2c1)C(=O)O; AEF = NCCOc1ccc(C[C@H](N)C(=O)O)cc1; PEG6 = NCCOCCOCCOCCOCCOCCOCCC(=O)O; X2 = C[N+](C)(C)C[C@@H](CC(=O)O)N*; ξAEF = NCCOc1ccc(CC(N)C(=O)O)cc1; 2Pal = N[C@@H](Cc1ccccn1)C(=O)O; 3Pal = N[C@@H](Cc1cccnc1)C(=O)O; Lys(Me) = CNCCCC[C@H](N)C(=O)O; NMeK = CN[C@@H](CCCCN)C(=O)O; Pen = CC(C)(S)[C@H](N)C(=O)O; Suc = O=C(CCC(=O)[*:2])[*:1]; Thp = NC1(C(=O)O)CCOCC1; AEEA = NCCOCCOCC(=O)O; ξK = NCCCCC(N)C(=O)O; Sar = CNCC(=O)O
What was measured:
IL-23R = molecular target: T1, IL-23R (Homo sapiens, UniProt Q5VWK5); assay: IL23R Reporter Assay; type: cell-based; conditions: HEK293 cells containing IL-23R, IL-12Rβ1 and STAT-inducible firefly luciferase reporter; 10 ng/mL IL-23 (EC90); 5 h
T1 construct: HEK293 cells containing IL-23R, IL-12Rβ1 and a firefly luciferase reporter gene driven by a STAT-inducible promoter (Promega); host or cells: HEK293
T1 sequence (Q5VWK5 24-629): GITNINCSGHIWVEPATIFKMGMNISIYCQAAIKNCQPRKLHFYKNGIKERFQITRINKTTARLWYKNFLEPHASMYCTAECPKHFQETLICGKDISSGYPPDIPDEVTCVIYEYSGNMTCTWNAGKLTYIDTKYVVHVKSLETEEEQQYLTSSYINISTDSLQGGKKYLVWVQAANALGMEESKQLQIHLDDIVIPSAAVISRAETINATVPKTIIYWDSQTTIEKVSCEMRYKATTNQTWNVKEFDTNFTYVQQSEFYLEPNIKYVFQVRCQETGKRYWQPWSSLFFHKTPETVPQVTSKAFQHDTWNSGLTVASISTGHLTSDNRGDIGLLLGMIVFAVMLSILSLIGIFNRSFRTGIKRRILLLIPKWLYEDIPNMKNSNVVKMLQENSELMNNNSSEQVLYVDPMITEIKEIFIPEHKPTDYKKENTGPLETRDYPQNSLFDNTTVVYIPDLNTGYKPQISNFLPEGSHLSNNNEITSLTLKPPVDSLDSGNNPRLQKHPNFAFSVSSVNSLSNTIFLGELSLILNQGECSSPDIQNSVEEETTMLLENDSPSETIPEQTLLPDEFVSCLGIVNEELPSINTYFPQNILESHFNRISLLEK
In short: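 IC50 values were fitted with a 4-parameter Hill equation to luciferase signal, scaled between IL-23-only wells (0% inhibition) and 30 μM reference inhibitor (100%). The readout was a STAT-inducible reporter in IL-23R/IL-12Rβ1 HEK293 cells, stimulated with added 10 ng/mL IL-23 (EC90) for 5 h at 37° C and developed with BioGlo.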

[1] = tested on: IL-23-stimulated phosphorylated STAT3 in peripheral blood mononuclear cells (PBMCs); assay: PBMC pSTAT3 Assay; type: cell-based; conditions: PBMCs from healthy donors; 30 min preincubation with peptide; IL-23 5 ng/mL for 30 min; phospho-STAT3 by MSD
In short: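 Phospho-STAT3 quantified by Meso Scale assay in lysates of PBMCs exposed to IL-23 (5 ng/mL, 30 min, 37 °C) after 30 min peptide pretreatment. Cells were cryopreserved donor PBMCs activated 4 days with anti-CD3 plus IL-1β (100 ng/mL) and starved ~4 h; IC50 reported.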

Structure (SMILES)	IC50 (IL-23R) [nM]	IC50 [1] [nM]
CC(=O)NCCCC[C@@H]1NC(=O)[C@H](Cc2c[nH]c3c(C)cccc23)NC(=O)[C@H]([C@@H](C)O)NC(=O)[C@H](CC(N)=O)NC(=O)[C@@H](NC(C)=O)C(C)(C)SSC(C)(C)[C@@H](C(=O)N[C@@H](Cc2ccc(OCCN)cc2)C(=O)N[C@@H](Cc2ccc3ccccc3c2)C(=O)NC2(C(=O)N[C@@H](CCC(=O)O)C(=O)N[C@@H](CC(N)=O)C(=O)N[C@@H](Cc3cccnc3)C(=O)N(C)CC(=O)N[C@@H](CCCCNC(=O)COCCOCCN(C)C(=O)COCCOCCN(C)C(=O)CC[C@@H](C(=O)O)N(C)C(=O)CCCCCCCCCCCCCCCCCc3nnn[nH]3)C(N)=O)CCOCC2)NC1=O [compound 3, MeCO-Pen(3)-N-T-7MeW-K(Ac)-Pen(3)-AEF-2Nal-THP-E-N-3Pya-Sar-K(PEG2NMePEG2NMegENMeC18Tetrazole)-CONH2]	< 50	< 0.5
CC(=O)NCCCC[C@@H]1NC(=O)[C@H](Cc2c[nH]c3c(C)cccc23)NC(=O)[C@H]([C@@H](C)O)NC(=O)[C@H](CCCCNC(=O)CCOCCOCCOCCOCCOCCOCCOCCOCCOCCOCCOCCOCCNC(=O)CC[C@H](NC(=O)CCCCCCCCCCCCCCCCC(=O)O)C(=O)O)NC(=O)[C@@H](NC(=O)[C@@H](CCCNC(=N)N)NC(C)=O)C(C)(C)SSC(C)(C)[C@@H](C(=O)N[C@@H](Cc2ccc(OCCN)cc2)C(=O)N[C@@H](Cc2ccc3ccccc3c2)C(=O)NC2(C(=O)N[C@@H](CCC(=O)O)C(=O)N[C@@H](CC(N)=O)C(=O)N[C@@H](Cc3cccnc3)C(=O)N(C)CC(N)=O)CCOCC2)NC1=O [compound 99, MeCO-r-Pen(3)-K(PEG12gEC20OH)-T-7MeW-K(Ac)-Pen(3)-AEF-2Nal-THP-E-N-3Pya-Sar-CONH2] (Ac-[dR][Pen]K([PEG12-γGlu-C18 diacid])T[Trp(7-Me)]K(Ac)[Pen][AEF][2Nal][Thp]EN[3Pal][Sar]-NH2; disulfide 2-7)	< 50	< 0.5
CC(=O)N(C)CCCC[C@@H]1NC(=O)[C@H](Cc2c[nH]c3c(C)cccc23)NC(=O)[C@H]([C@@H](C)O)NC(=O)[C@H](CC(=O)N(C)C)NC(=O)[C@@H](NC(=O)CCOCCOCC[N+](C)(C)C)C(C)(C)SSC(C)(C)[C@@H](C(=O)N[C@@H](Cc2ccc(OCCOCCOCC[N+](C)(C)C)cc2)C(=O)N[C@@H](Cc2ccc3ccccc3c2)C(=O)NC2(C(=O)N[C@@H](CCCCN(C)C(C)=O)C(=O)N[C@@H](CC(N)=O)C(=O)N[C@@H](Cc3cccnc3)C(=O)N(C)[C@@H](CCCCNC(=O)CCOCCOCCOCCOCCOCCOCCNC(=O)CC[C@H](NC(=O)CCCCCCCCCCCCCCCCC(=O)O)C(=O)O)C(N)=O)CCOCC2)NC1=O [compound 88, cPEG3aCO-Pen(3)-N(N(Me)2)-T-7MeW-K(NMeAc)-Pen(3)-APEG3F-2Nal-THP-K(NMeAc)-N-3Pya-NMeK(PEG6gEC18OH)-CONH2] ({Me3N+(CH2)2O(CH2)2O(CH2)2CO}-[Pen]D(NMe2)T[Trp(7-Me)][Lys(Me)](Ac)[Pen]Y(CH2CH2OCH2CH2OCH2CH2NMe3+)[2Nal][Thp][Lys(Me)](Ac)N[3Pal][NMeK]([PEG6-γGlu-C18 diacid])-NH2; disulfide 1-6)	< 50	< 0.5
Cc1cccc2c(C[C@@H]3NC(=O)[C@H]([C@@H](C)O)NC(=O)[C@H](CC(=O)N(C)C)NC(=O)[C@@H](NC(=O)CCOCCOCCOCCOCC[N+](C)(C)C)C(C)(C)SSC(C)(C)[C@@H](C(=O)NC(Cc4ccc(OCCN)cc4)C(=O)N[C@@H](Cc4ccc5ccccc5c4)C(=O)NC4(C(=O)N[C@@H](CCC(=O)O)C(=O)N[C@@H](CC(N)=O)C(=O)N[C@@H](Cc5cccnc5)C(=O)N(C)[C@@H](CCCCNC(=O)COCCOCCNC(=O)COCCOCCNC(=O)CC[C@H](NC(=O)CCCCCCCCCCCCCCCCC(=O)O)C(=O)O)C(N)=O)CCOCC4)NC(=O)[C@H](CCN(C)C(=O)CCOCCOCCOCCOCC[N+](C)(C)C)NC3=O)c[nH]c12 (stereo partly shown) [compound 153, cPEG5aCO-Pen(3)-N(N(Me)2)-T-7MeW-Dab(NMecPEG5a)-Pen(3)-AEF-2Nal-THP-E-N-3Pya-NMeK(PEG2PEG2gEC18OH)-CONH2] ({Me3N+CH2CH2(OCH2CH2)4CO}-[Pen]D(NMe2)T[Trp(7-Me)][X6](Me3N+CH2CH2(OCH2CH2)4CO)[Pen][ξAEF][2Nal][Thp]EN[3Pal][NMeK]([AEEA-AEEA-γGlu-C18 diacid])-NH2; disulfide 1-6)	50 to 500	< 0.5

Now from value to compound, other results behind:

IC50 (IL-23R) [nM]	Structure (SMILES)	IC50 [1] [nM]
50 to 500	Cc1cccc2c(C[C@@H]3NC(=O)[C@H]([C@@H](C)O)NC(=O)[C@H](CC(N)=O)NC(=O)[C@@H](NC(=O)[C@@H](CCCNC(=N)N)NC(=O)CCOCCOCC[N+](C)(C)C)C(C)(C)SSC(C)(C)[C@@H](C(=O)N[C@@H](Cc4ccc(OCCN)cc4)C(=O)N[C@@H](Cc4ccc5ccccc5c4)C(=O)NC4(C(=O)N[C@@H](CCC(=O)O)C(=O)N[C@@H](CC(N)=O)C(=O)N[C@@H](Cc5cccnc5)C(=O)N(C)CC(N)=O)CCOCC4)NC(=O)[C@H](CCCCNC(=O)COCCOCCNC(=O)COCCOCCNC(=O)CC[C@H](NC(=O)CCCCCCCCCCCCCCCCC(=O)O)C(=O)O)NC3=O)c[nH]c12 [compound 72, cPEG3aCO-r-Pen(3)-N-T-7MeW-K(PEG2PEG2C18OH)-Pen(3)-AEF-2Nal-THP-E-N-3Pya-Sar-CONH2] ({Me3N+(CH2)2O(CH2)2O(CH2)2CO}-[dR][Pen]NT[Trp(7-Me)]K([AEEA-AEEA-γGlu-C18 diacid])[Pen][AEF][2Nal][Thp]EN[3Pal][Sar]-NH2; disulfide 2-7)	< 0.5
50 to 500	CC(=O)N[C@H](CCCNC(=N)N)C(=O)N[C@@H]1C(=O)N[C@@H](CC(N)=O)C(=O)N[C@@H]([C@@H](C)O)C(=O)N[C@@H](Cc2c[nH]c3c(C)cccc23)C(=O)NC(CCCCNC(=O)COCCOCCNC(=O)COCCOCCNC(=O)CC[C@H](NC(=O)CCCCCCCCCCCCCCCCC(=O)O)C(=O)O)C(=O)N[C@H](C(=O)N[C@@H](Cc2ccc(OCCN)cc2)C(=O)N[C@@H](Cc2ccc3ccccc3c2)C(=O)NC2(C(=O)N[C@@H](CCC(=O)O)C(=O)N[C@@H](CC(N)=O)C(=O)N[C@@H](Cc3cccnc3)C(=O)N(C)CC(N)=O)CCOCC2)C(C)(C)SSC1(C)C (stereo partly drawn) [compound 59, MeCO-r-Pen(3)-N-T-7MeW-K(PEG2PEG2gEC18OH)-Pen(3)-AEF-2Nal-THP-E-N-3Pya-Sar-CONH2] (Ac-[dR][Pen]NT[Trp(7-Me)][ξK]([AEEA-AEEA-γGlu-C18 diacid])[Pen][AEF][2Nal][Thp]EN[3Pal][Sar]-NH2; disulfide 2-7)	< 0.5
< 50	CC(=O)NCCCC[C@@H]1NC(=O)[C@H](Cc2c[nH]c3c(C)cccc23)NC(=O)[C@H]([C@@H](C)O)NC(=O)[C@H](CCCCNC(=O)CCC(=O)N[C@H](CC(=O)O)C[N+](C)(C)C)NC(=O)[C@@H](NC(=O)[C@H](CCCNC(=N)N)NC(C)=O)C(C)(C)SSC(C)(C)[C@@H](C(=O)N[C@@H](Cc2ccc(OCCN)cc2)C(=O)N[C@@H](Cc2ccc3ccccc3c2)C(=O)NC2(C(=O)N[C@@H](CCC(=O)O)C(=O)N[C@@H](CC(N)=O)C(=O)N[C@@H](Cc3cccnc3)C(=O)N(C)[C@@H](CCCCNC(=O)COCCOCCNC(=O)COCCOCCNC(=O)CC[C@H](NC(=O)CCCCCCCCCCCCCCCCC(=O)O)C(=O)O)C(N)=O)CCOCC2)NC1=O [compound 30, MeCO-r-Pen(3)-K(d)-T-7MeW-K(Ac)-Pen(3)-AEF-2Nal-THP-E-N-3Pya-NMeK(PEG2PEG2gEC18OH)-CONH2] (Ac-R[Pen]K([Suc-X2])T[Trp(7-Me)]K(Ac)[Pen][AEF][2Nal][Thp]EN[3Pal][NMeK]([AEEA-AEEA-γGlu-C18 diacid])-NH2; disulfide 2-7)	< 0.5
< 50	CC(=O)NCCCC[C@@H]1NC(=O)[C@H](Cc2c[nH]c3c(C)cccc23)NC(=O)[C@H]([C@@H](C)O)NC(=O)[C@H](CCCCNC(=O)COCCOCCNC(=O)COCCOCCNC(=O)CC[C@H](NC(=O)CCCCCCCCCCCCCCCCC(=O)O)C(=O)O)NC(=O)[C@@H](NC(=O)[C@@H](CCCNC(=N)N)NC(C)=O)C(C)(C)SSC(C)(C)[C@@H](C(=O)N[C@@H](Cc2ccc(OCCN)cc2)C(=O)N[C@@H](Cc2ccc3ccccc3c2)C(=O)NC2(C(=O)N[C@@H](CCCCN(C)C(=O)CCOCCOCC[N+](C)(C)C)C(=O)N[C@@H](CC(N)=O)C(=O)N[C@@H](Cc3ccccn3)C(=O)N(C)CC(N)=O)CCOCC2)NC1=O [compound 74, MeCO-r-Pen(3)-K(PEG2PEG2gEC18OH)-T-7MeW-K(Ac)-Pen(3)-AEF-2Nal-THP-K(NMecPEG3a)-N-3Pya-Sar-CONH2] (Ac-[dR][Pen]K([AEEA-AEEA-γGlu-C18 diacid])T[Trp(7-Me)]K(Ac)[Pen][AEF][2Nal][Thp][Lys(Me)](Me3N+(CH2)2O(CH2)2O(CH2)2CO)N[2Pal][Sar]-NH2; disulfide 2-7)	< 0.5

Reference: patent publication US20260250320A1, “LIPIDATED PEPTIDE INHIBITORS OF INTERLEUKIN-23 RECEPTOR” (Janssen Pharmaceutica NV, priority 2023, published 2026)
